Format in all cases: cell-based
In assay [1] the target is T1, CDK4-NanoLuc fusion with CCND1 in 293T or 293 cells (Homo sapiens, UniProt P11802).
T1 construct: host or cells: 293T (ATCC CRL-3216) or 293 (ATCC CRL-1573)
Description: NanoBRET Target Engagement (TE) Intracellular Kinase Assay, CDK4/CCND1. As to conditions: NanoBRET TE intracellular kinase assay, 2-hour incubation, read-out: NanoBRET-CDK4/D1 IC50.

The target of assay [2] is T2, CDK2-NanoLuc fusion with CCNE1 in 293T or 293 cells (Homo sapiens, UniProt P24941).
T2 construct: host or cells: 293T (ATCC CRL-3216) or 293 (ATCC CRL-1573)
Description: NanoBRET Target Engagement (TE) Intracellular Kinase Assay, CDK2/CCNE1. As to conditions: NanoBRET TE intracellular kinase assay, 2-hour incubation, read-out: NanoBRET-CDK2/E1 IC50.

The subject of assay [3] is Phospho-Rb Ser807/811 in OVCAR3 cells. Nature of the assay: OVCAR3 Phospho-Rb Ser807/811 HTRF assay. As to conditions: Homo sapiens, OVCAR-3, 1 h, OVCAR3 cells, Phospho-Rb Ser807/811 HTRF, 1 hour incubation; read-out: pRb-OVCAR3 IC50. The protocol: Cells were trypsinized and resuspended in 1 mM hydroxyurea (Sigma; H8627), 90% RPMI and 10% fetal bovine serum. […] Dose response curve normalized to DMSO control was plotted using four-parameter logistic model for IC50 calculation.

T1 sequence (P11802 whole entry, the tested form may be a part): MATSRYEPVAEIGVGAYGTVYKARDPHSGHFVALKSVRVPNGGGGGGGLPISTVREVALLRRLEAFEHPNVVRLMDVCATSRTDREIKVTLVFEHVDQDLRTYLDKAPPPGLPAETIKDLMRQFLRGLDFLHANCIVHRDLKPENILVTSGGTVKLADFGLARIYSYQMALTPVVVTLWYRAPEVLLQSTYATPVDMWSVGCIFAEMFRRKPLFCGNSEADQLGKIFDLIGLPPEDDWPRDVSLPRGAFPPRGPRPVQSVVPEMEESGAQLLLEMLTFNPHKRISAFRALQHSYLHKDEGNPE
T1 sequence (P24385 whole entry partner, the tested form may be a part): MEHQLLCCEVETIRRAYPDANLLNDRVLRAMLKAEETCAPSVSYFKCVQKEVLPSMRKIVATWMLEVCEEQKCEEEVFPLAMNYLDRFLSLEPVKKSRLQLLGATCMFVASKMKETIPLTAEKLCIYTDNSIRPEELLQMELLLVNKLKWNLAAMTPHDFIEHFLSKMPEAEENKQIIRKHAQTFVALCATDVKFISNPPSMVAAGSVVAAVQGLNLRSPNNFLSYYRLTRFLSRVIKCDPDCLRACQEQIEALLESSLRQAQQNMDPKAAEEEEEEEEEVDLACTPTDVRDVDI

For the compound `COc1cc(O)c(C=O)c(OCC(=O)Nc2cc([C@H]3CC[C@@H](OC(=O)NCC4CCC4)C3)[nH]n2)c1` [Compound 178], the IC50 in assay [1] turned out to be 5600 nM; in assay [2], 2.08 nM; in assay [3], 54.1 nM.

Take `COc1cc(O)c(C=O)c(OCC(=O)Nc2cc([C@H]3CC[C@@H](OC(=O)NCC4COC4)C3)[nH]n2)c1` [Compound 179]: the IC50 in assay [1] was greater than 10000 nM; in assay [2], 14.1 nM; in assay [3], 115 nM.

In the case of `CCN(CC)C(=O)O[C@@H]1CC[C@H](c2cc(NC(=O)COc3cc(OC)cc(O)c3C=O)n[nH]2)C1` [Compound 180], the IC50 in assay [1] came out at 1580 nM; in assay [2], 2.68 nM; in assay [3] it was 23.5 nM.

`CCCCNC(=O)O[C@@H]1CC[C@H](c2cc(NC(=O)COc3cc(OC)cc(O)c3C=O)n[nH]2)C1` [Compound 181]: the IC50 in assay [1] was found to be 5000 nM; in assay [2], 1.18 nM; in assay [3], 27.9 nM.

As to `CCCNC(=O)O[C@H]1C[C@@H](c2cc(NC(=O)COc3cc(OC)cc(O)c3C=O)n[nH]2)C1` [Compound 182, (1s,3s)-3-(3-(2-(2-formyl-3-hydroxy-5-methoxyphenoxy)acetamido)-1H-pyrazol-5-yl)cyclobutyl propylcarbamate], the IC50 was greater than 10000 nM in assay [1], 6.24 nM in assay [2] and 66.1 nM in assay [3].

As for `O=Cc1c(O)cc(Cl)cc1OCC(=O)Nc1cc([C@H]2CC[C@@H](OC(=O)N3C4COCC3C4)C2)[nH]n1` [Compound 183], the IC50 was 4200 nM in assay [1], 10.1 nM in assay [2] and 140 nM in assay [3].

As to `CC[C@H](C)NC(=O)O[C@@H]1CC[C@H](c2cc(NC(=O)COc3cc(OC)cc(O)c3C=O)n[nH]2)C1` [Compound 184], the IC50 in assay [1] came to 1450 nM; in assay [2], 1.5 nM; in assay [3] it was 20.6 nM.

`COc1cc(O)c(C=O)c(OCC(=O)Nc2cc([C@H]3CC[C@@H](OC(=O)NC4CN(C)C4)C3)[nH]n2)c1` [Compound 185]: the IC50 is greater than 10000 nM in assay [1], 445 nM in assay [2] and 363 nM in assay [3].

As for `O=Cc1c(O)cc(OC(F)F)cc1OCC(=O)Nc1cc([C@H]2CC[C@@H](OC(=O)N3C4COCC3C4)C2)[nH]n1` [Compound 186], the IC50 was found to be 6580 nM in assay [1], 22 nM in assay [2] and 105 nM in assay [3].

For `COc1cc(O)c(C=O)c(OCC(=O)Nc2cc([C@H]3CC[C@@H](OC(=O)N4CC(N(C)C)C4)C3)[nH]n2)c1` [Compound 187], the results for the IC50 in assay [1], in assay [2] and in assay [3] were greater than 10000 nM, 18.4 nM and 65.3 nM, respectively.

Regarding `COc1cc(O)c(C=O)c(OCC(=O)Nc2cc([C@H]3CC[C@@H](OC(=O)NCCN(C)C)C3)[nH]n2)c1` [Compound 188], the figures for the IC50 in assay [1], in assay [2] and in assay [3] were greater than 10000 nM, 337 nM and 368 nM, respectively.

In the case of `COc1cc(O)c(C=O)c(OCC(=O)Nc2cc([C@H]3CC[C@@H](OC(=O)N4CC5CC(C4)N5C)C3)[nH]n2)c1` [Compound 189], the IC50 in assay [1] is greater than 10000 nM; in assay [2], 159 nM; in assay [3] it was 198 nM.

For the compound `COc1cc(O)c(C=O)c(OCC(=O)Nc2cc([C@H]3CC[C@@H](OC(=O)N4C5CC4CN(C)C5)C3)[nH]n2)c1` [Compound 190], the IC50 in assay [1] came to 4160 nM; in assay [2], 8.02 nM; in assay [3], 35 nM.

Take `COc1cc(O)c(C=O)c(OCC(=O)Nc2cc([C@H]3CC[C@@H](OC(=O)N4CC5(CCN5C)C4)C3)[nH]n2)c1` [Compound 191]: the IC50 in assay [1] is greater than 10000 nM; in assay [2] it was 25 nM; in assay [3], 127 nM.

As to `O=Cc1c(O)cc(F)cc1OCC(=O)Nc1cc([C@H]2CC[C@@H](OC(=O)N3C4COCC3C4)C2)[nH]n1` [Compound 192], the IC50 was 5910 nM in assay [1], 24 nM in assay [2] and 88 nM in assay [3].

As to `COc1cc(O)c(C=O)c(O[C@H](C)C(=O)Nc2cc([C@H]3C[C@@H](OC(=O)N4C5COCC4C5)C3)[nH]n2)c1` [Compound 193], the values for the IC50 in assay [1], in assay [2] and in assay [3] were greater than 10000 nM, 11.6 nM and 84.7 nM, respectively.

For `COc1cc(O)c(C=O)c(OCC(=O)Nc2cc([C@H]3CC[C@@H](OC(=O)N4CCN(C)CC4)C3)[nH]n2)c1` [Compound 195], the IC50 came to 5000 nM in assay [1], 9.37 nM in assay [2] and 37.8 nM in assay [3].

For `O=Cc1c(O)cccc1OCC(=O)Nc1cc([C@H]2CC[C@@H](OC(=O)N3C4COCC3C4)C2)[nH]n1` [Compound 196], the IC50 in assay [1] turned out to be 7360 nM; in assay [2], 6.2 nM; in assay [3], 102 nM.

Regarding `COc1cc(O)c(C=O)c(OCC(=O)Nc2cc([C@H]3CC[C@@H](OC(=O)N4CCCCC4)C3)[nH]n2)c1` [Compound 234, (1R,3S)-3-(3-(2-(2-formyl-3-hydroxy-5-methoxyphenoxy)acetamido)-1H-pyrazol-5-yl)cyclopentyl piperidine-1-carboxylate], the IC50 in assay [1] stood at 2840 nM; in assay [2], 1.18 nM; in assay [3] it was 14.2 nM.

Consider `CC(C)NC(=O)O[C@@H]1CC[C@H](c2cc(Nc3nccc4c(C=O)c(O)ccc34)n[nH]2)C1` [Compound 260, (1R,3S)-3-(3-((5-formyl-6-hydroxyisoquinolin-1-yl)amino)-1H-pyrazol-5-yl)cyclopentyl isopropylcarbamate], for which the IC50 is greater than 10000 nM in assay [1], 15 nM in assay [2] and 170 nM in assay [3].

As to `CC1(NC(=O)O[C@@H]2CC[C@H](c3cc(Nc4nccc5c(C=O)c(O)ccc45)n[nH]3)C2)CC1` [Compound 261, (1R,3S)-3-(3-((5-formyl-6-hydroxyisoquinolin-1-yl)amino)-1H-pyrazol-5-yl)cyclopentyl (1-methylcyclopropyl)carbamate], the IC50 in assay [1] is 4100 nM; in assay [2] it was 4.7 nM; in assay [3], 51 nM.

Turning to `COc1cc(O)c(C=O)c(OCC(=O)Nc2cc([C@H]3CC[C@@H](OC(=O)N4C5CCC(C5)N4C)C3)[nH]n2)c1` (stereo partly drawn) [Compound 272, (1R,3S)-3-(3-(2-(2-formyl-3-hydroxy-5-methoxyphenoxy)acetamido)-1H-pyrazol-5-yl)cyclopentyl 3-methyl-2,3-diazabicyclo[2.2.1]heptane-2-carboxylate], the IC50 was greater than 10000 nM in assay [1], 2.2 nM in assay [2] and 39.3 nM in assay [3].

Consider `COc1cc(O)c(C=O)c(OCC(=O)Nc2cc([C@H]3CC[C@@H](OC(=O)N4NC5CCC4C5)C3)[nH]n2)c1` (stereo partly drawn) [Compound 273, (1R,3S)-3-(3-(2-(2-formyl-3-hydroxy-5-methoxyphenoxy)acetamido)-1H-pyrazol-5-yl)cyclopentyl 2,3-diazabicyclo[2.2.1]heptane-2-carboxylate], for which the IC50 in assay [1] was 5820 nM; in assay [2], 2.38 nM; in assay [3] it was 29.5 nM.

As for `CCN(C)NC(=O)O[C@@H]1CC[C@H](c2cc(NC(=O)COc3cc(OC)cc(O)c3C=O)n[nH]2)C1` [Compound 274, (1R,3S)-3-(3-(2-(2-formyl-3-hydroxy-5-methoxyphenoxy)acetamido)-1H-pyrazol-5-yl)cyclopentyl 2-ethyl-2-methylhydrazine-1-carboxylate], the figures for the IC50 in assay [1], in assay [2] and in assay [3] were greater than 10000 nM, 3.17 nM and 54.7 nM, respectively.

(Values after US20250289789A1, “REVERSIBLE LYSINE COVALENT MODIFIERS OF CDK2 AND USES THEREOF” (Terremoto Biosciences, Inc., priority 2023, published 2025).)
